How the values were obtained:
Aβ1-42 = molecular target: T1, Aβ1-42 (Homo sapiens, UniProt P05067); assay: Inhibition of Aβ1-42 self-aggregation (ThT fluorescence); type: biochemical; conditions: [Inhibitor]=[Aβ1-42]=50 µM, mean ± SEM
T1 construct: pre-treated Aβ1-42 samples (Bachem AG, Switzerland); purchased Bachem AG, Switzerland
Experimental: Experiments were performed by incubating the peptide in 10 mM phosphate buffer (pH=8.0) containing 10 mM NaCl, at 30 °C for 24 h (final Aβ concentration=50 µM with and without inhibitor (50 µM). The inhibitor was dissolved in methanol and diluted in the assay buffer. Blanks containing inhibitor and ThT were also prepared and evaluated to account for quenching and fluorescence properties. To quantify amyloid fibril formation, the ThT fluorescence method was used^36, 37. After incubation, samples were diluted to a final volume of 2.0 mL with […] glycine-NaOH buffer (pH= 8.5) containing 1.5 µM ThT. A 300-seconds-time scan of fluorescence intensity was carried out (λexc=446 nm; λem=490 nm), and values at plateau were averaged after subtracting the background fluorescence of 1.5 µM ThT solution. The fluorescence intensities were compared and the % inhibition was calculated.
The inhibitory activity of compounds BIGI-3e, BIGI-3h and BIGI-3k against the spontaneous aggregation of Aβ1-42 was determined in vitro using a thioflavin T (ThT)-based fluorometric assay^35. […].

[1] = Oxygen Radical Absorbance Capacity (ORAC-FL) assay; conditions: Trolox equivalents (µmol of Trolox equivalent/µmol of compound)
Experimental: The radical scavenging capacity of the TFAHs was determined by the ORAC-FL method using fluorescein as a fluorescent probe^33,34. (±)-6-Hydroxy-2,5,7,8-tetramethylchromane-2-carboxylic acid (Trolox), fluorescein (FL) and 2,2'-azobis(amidinopropane) dihydrochloride (AAPH) were purchased from Sigma-Aldrich. A Varioskan Flash plate reader with built-in injectors (Thermo Scientific) was used. The reaction was carried out at 37 °C in 75 mM phosphate buffer (pH= 7.4), and the final volume reaction mixture was 200 µL. The tested compounds and Trolox standard were dissolved in DMSO to 10 mM and further diluted in 75 mM phosphate buffer (pH= 7.4). The final concentrations were 0.1-1 µM for the tested compounds and 1-8 µM for Trolox standard. The blank was composed of 120 µL of FL, 60 µL of AAPH and 20 µL of phosphate buffer (pH=7.4) and was added in each assay.
The net AUC corresponding to a sample was calculated as follows: Net AUC = AUCantioxidant −AUCblank . [formula]
Regression equations were calculated by plotting the net AUC against the antioxidant concentration. The ORAC value was obtained by dividing the slope of the latter curve between the slope of the Trolox curve obtained in the same assay. Final ORAC values were expressed as µmol of Trolox equivalent/µmol of TFAH.

[2] = system: voltage-gated Ca^2+ channels (VGCC); assay: Calcium channel antagonist assay (K+-evoked cytosolic Ca2+, Fluo-4); type: cell-based; conditions: SH-SY5Y cells, K+ 70 mM, mean ± SEM, read-out: IC50 (µM) Calcium channels blockade
Experimental: The cytosolic Ca^2+ has been measured in SH-SY5Y cells. SH-SY5Y cells were maintained similarly to what was previously described^30. Free cytosolic Ca^2+ was measured using the fluorescent Ca^2+ indicator Fluo-4/AM (Fluo-4 acetomethoxyester). SH-SY5Y cells were seeded onto 96-well black plates at a density of 10^5 cells per well, achieving confluence after 48 h. Cells were washed with Krebs-Hepes solution (KH, in mM: 144 NaCl, 5.9 KCl, 1.2 MgCl2, 2 CaCl2, 11 D-glucose, 10 HEPES, pH 7.4). Cells were loaded with 10 µM Fluo-4/AM and 0.2% pluronic acid in KH and incubated for 45 min at 37 °C in the dark. Then, cells were washed twice with KH to remove the excess of probe. Tested compounds were incubated 10 min before K+ 70 mM was applied to evoke the increment of cytosolic Ca^2+. To normalize Fluo-4 signals, Triton X-100 (5%) and 1 M MnCl2 were applied to register both maximal and minimal fluorescence, respectively. The experiments were analyzed at excitation and emission wavelengths of 485 and 520 nm, respectively, and fluorescence was measured in a fluorescence microplate reader (FLUOstar Optima, BMG, Germany). Data were calculated as a percentage of Fmax - Fmin.
The blocking effect of the depolarization-induced Ca^2+ uptake was investigated in SH-SY5Y neuroblastoma cells stimulated with an extracellular concentration of K+ 70 mM, which induces the cell Ca^2+ levels elevation by opening voltage-gated Ca^2+ channels (VGCC), monitored with the Ca^2+-sensitive fluorescent dye Fluo-4. Nifedipine was used as positive standard.

[3] = molecular target: T2, human recombinant butyrylcholinesterase (hBuChE; EC 3.1.1.8) (Homo sapiens, UniProt P06276); assay: Cholinesterase inhibition in vitro assay (modified Ellman's method), BuChE; type: biochemical; conditions: pH 7.4, 37 °C, mean ± SEM, read-out: BChE (IC50 µM)
T2 construct: purchased Sigma-Aldrich (Prague, Czech Republic)
T2 sequence (P06276 29-602): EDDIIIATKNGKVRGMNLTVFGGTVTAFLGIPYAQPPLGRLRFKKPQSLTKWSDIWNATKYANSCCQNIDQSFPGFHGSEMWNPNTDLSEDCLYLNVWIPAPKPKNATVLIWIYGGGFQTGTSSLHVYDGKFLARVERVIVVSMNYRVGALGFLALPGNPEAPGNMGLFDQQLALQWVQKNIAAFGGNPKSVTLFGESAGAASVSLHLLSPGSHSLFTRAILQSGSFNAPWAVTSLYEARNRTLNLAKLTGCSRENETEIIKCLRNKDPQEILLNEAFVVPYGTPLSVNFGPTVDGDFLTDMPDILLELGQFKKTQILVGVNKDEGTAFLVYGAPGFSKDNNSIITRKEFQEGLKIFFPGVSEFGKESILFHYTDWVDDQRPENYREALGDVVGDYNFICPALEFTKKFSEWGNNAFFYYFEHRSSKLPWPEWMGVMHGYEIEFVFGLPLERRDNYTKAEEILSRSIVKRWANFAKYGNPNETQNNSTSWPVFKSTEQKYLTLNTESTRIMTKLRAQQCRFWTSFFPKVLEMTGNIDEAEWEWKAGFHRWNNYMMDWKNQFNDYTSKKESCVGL
Experimental: The AChE and BuChE inhibitory activity of the tested compounds was determined using a modified Ellman's method^31, 32.Human red-blood cell acetylcholinesterase (hAChE; EC 3.1.1.7), and human recombinant butyrylcholinesterase (hBuChE; EC 3.1.1.8), 5,5'-dithiobis(2-nitrobenzoic acid) (Ellman's reagent, DTNB), phosphate buffer (PB, pH 7.4), acetylthiocholine (ATC), and butyrylthiocholine (BTC), were purchased from Sigma-Aldrich (Prague, Czech Republic). Nunc polystyrene 96-well microplates with flat-bottom shape (ThermoFisher Scientific, USA) were used for the measurement and all the assay were carried out in 0.1 M KH2PO4/K2HPO4 buffer, pH 7.4. Enzyme solution was prepared at activity 2.0 units/mL in 2 mL aliquots. The assay mixture (100 µL) consisted of 40 µL of 0.1 M phosphate buffer (pH 7.4), 20 µL of 0.01 M DTNB, 10 µL of enzyme, and 20 µL of 0.01 M substrate (ATC iodide solution). Tested compounds were dissolved first in methanol (BIGI 23 in DMSO) and then further diluted by assay buffer to the final concentration. […]. […] Enzyme with the inhibitor was preincubated for 5 min in the assay mixture and then the reaction was started by addition of 20 µL of substrate (ATC for AChE, BTC for BuChE). The enzyme activity was determined by measuring the increase in absorbance at 412 nm at 37 °C at 2 min intervals using a Multi-mode microplate reader Synergy 2 (Vermont, USA). Each concentration was assayed in triplicate. The obtained data were used to compute the percentage inhibition (I; Equation 1): I = 1−(ΔAi)/(ΔA0) [%] [formula] ΔAi indicates the absorbance change provided by cholinesterase exposed to AChE inhibitors and ΔA0 indicates absorbance change caused by intact cholinesterase (phosphate buffer was used instead of AChE inhibitor solution). […] Calculations were performed using software Microsoft Excel (Redmont, WA, USA) and GraphPad Prism version 5.02 for Windows, GraphPad Software, San Diego, CA, USA.

T1 sequence (P05067 672-713 limits assumed): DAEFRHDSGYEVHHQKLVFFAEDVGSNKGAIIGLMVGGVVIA

SMILES | inhibition at 50 µM (Aβ1-42) [%] | ORAC [1] [TE] | IC50 [2] [µM] | IC50 [3] [µM] | % inhibition Aβ1-42 aggregation (Aβ1-42; 50 µM) [%]
CCOC(=O)C1=C(C)N(CCC2CCN(Cc3ccccc3)CC2)C(=O)NC1c1coc2ccc(Br)cc2c1=O (stereo not shown) [BIGI-3e, ethyl 1-(2-(1-benzylpiperidin-4-yl)ethyl)-4-(6-bromo-4-oxo-4H-chromen-3-yl)-6-methyl-2-oxo-1,2,3,4-tetrahydropyrimidine-5-carboxylate] | 63 ± 2.1 | 3.26 ± 0.12 | 1.9 ± 0.6 | 8.4 ± 0.34 | –
CCOC(=O)C1=C(C)N(CCCC2CCN(Cc3ccccc3)CC2)C(=O)NC1c1coc2cc(CC)ccc2c1=O (stereo not shown) [BIGI-3k, ethyl 1-(3-(1-benzylpiperidin-4-yl)propyl)-4-(7-ethyl-4-oxo-4H-chromen-3-yl)-6-methyl-2-oxo-1,2,3,4-tetrahydropyrimidine-5-carboxylate] | 63.8 ± 0.8 | 2.75 ± 0.16 | 1.4 ± 0.5 | 2.95 | –
CCOC(=O)C1=C(C)N(CCC2CCN(Cc3ccccc3)CC2)C(=O)NC1c1coc2c(Cl)cc(Cl)cc2c1=O (racemic) [BIGI-3h, ethyl 1-(2-(1-benzylpiperidin-4-yl)ethyl)-4-(6,8-dichloro-4-oxo-4H-chromen-3-yl)-6-methyl-2-oxo-1,2,3,4-tetrahydropyrimidine-5-carboxylate] | 66 ± 0.7 | 3.65± 0.07 | 1.4 ± 0.4 | 17.3 ± 0.9 | 63.6 ± 1.3

Reference: patent publication EP4168403B1 (priority 2020, dated 2021)
